Laboratory results as given in patent publication US11066357B2, “Benzoannulene derivatives as antiviral agents” (Southern Research Institute, priority 2017, dated 2021).

Key:
[1] = system: CHIKV; assay: antiviral activity (EC50), Table 1; format: cell-based; conditions: Chikungunya virus
[2] = cytotoxicity (CC50), Table 1

Structure (SMILES): COc1cc2c(cc1C(=O)Nc1ccc(C(C)(C)C)cc1)CCCCC2 [Compound 1, N-(4-(tert.-butyl)phenyl)-3-methoxy-6,7,8,9-tetrahydro-5H-benzo[7]annulene-2-carboxamide]
- EC50 [1]: 0.32 µM
- CC50 [2]: > 40 µM

Structure (SMILES): CC(C)(C)c1ccc(NC(=O)c2cc3c(cc2O)CCCCC3)cc1 [Compound 2, N-(4-(tert.-butyl)phenyl)-3-hydroxy-6,7,8,9-tetrahydro-5H-benzo[7]annulene-2-carboxamide]
- EC50 [1]: 1.1 µM
- CC50 [2]: 9.8 µM

Structure (SMILES): CC(C)(C)c1ccc(NC(=O)c2ccc3c(c2)CCCCC3)cc1 [Compound 3, N-(4-(tert.-butyl)phenyl)-6,7,8,9-tetrahydro-5H-benzo[7]annulene-2-carboxamide]
- EC50 [1]: 1.09 µM
- CC50 [2]: > 40 µM

Structure (SMILES): COc1cc2c(cc1C(=O)Nc1cc(C)n(C(C)(C)C)n1)CCCCC2 [Compound 4, N-(1-(tert.-butyl)-5-methyl-1H-pyrazol-3-yl)-3-methoxy-6,7,8,9-tetrahydro-5H-benzo[7]annulene-2-carboxamide]
- EC50 [1]: 3.9 µM
- CC50 [2]: 22.3 µM

Structure (SMILES): CCn1nc(NC(=O)c2cc3c(cc2OC)CCCCC3)cc1C [Compound 5, N-(1-ethyl-5-methyl-1H-pyrazol-3-yl)-3-methoxy-6,7,8,9-tetrahydro-5H-benzo[7]annulene-2-carboxamide]
- EC50 [1]: 9.9 µM
- CC50 [2]: > 40 µM

Structure (SMILES): CCn1nc(C(F)(F)F)c(NC(=O)c2cc3c(cc2OC)CCCCC3)c1C [Compound 6, N-(1-ethyl-5-methyl-3-(trifluoromethyl)-1H-pyrazol-4-yl)-3-methoxy-6,7,8,9-tetrahydro-5H-benzo[7]annulene-2-carboxamide]
- EC50 [1]: 35.2 µM
- CC50 [2]: > 40 µM

Structure (SMILES): COc1cc2c(cc1C(=O)Nc1ccc(C(C)(C)C)s1)CCCCC2 [Compound 7, N-(5-(tert.-butyl)thiophen-2-yl)-3-methoxy-6,7,8,9-tetrahydro-5H-benzo[7]annulene-2-carboxamide]
- EC50 [1]: > 40 µM
- CC50 [2]: > 40 µM

Structure (SMILES): COc1cc2c(cc1C(=O)Nc1ncc(C(C)(C)C)s1)CCCCC2 [Compound 8, N-(5-(tert.-butyl)thiazol-2-yl)-3-methoxy-6,7,8,9-tetrahydro-5H-benzo[7]annulene-2-carboxamide]
- EC50 [1]: 9.63 µM
- CC50 [2]: > 40 µM

Structure (SMILES): COc1cc2c(cc1C(=O)Nc1cnc(C(C)(C)C)s1)CCCCC2 [Compound 9, N-(2-(tert.-butyl)thiazol-5-yl)-3-methoxy-6,7,8,9-tetrahydro-5H-benzo[7]annulene-2-carboxamide]
- EC50 [1]: > 40 µM
- CC50 [2]: > 40 µM

Structure (SMILES): COc1cc2c(cc1C(=O)Nc1ccc(C(C)(C)O)cc1)CCCCC2 [Compound 10, N-(4-(2-hydroxypropan-2-yl)phenyl)-3-methoxy-6,7,8,9-tetrahydro-5H-benzo[7]annulene-2-carboxamide]
- EC50 [1]: 1.8 µM
- CC50 [2]: 24.9 µM

Structure (SMILES): COc1cc2c(cc1C(=O)Nc1ccc(C(C)(C)C)cn1)CCCCC2 [Compound 11, N-(5-(tert.-butyl)pyridin-2-yl)-3-methoxy-6,7,8,9-tetrahydro-5H-benzo[7]annulene-2-carboxamide]
- EC50 [1]: 1.14 µM
- CC50 [2]: > 40 µM

Structure (SMILES): COc1cc2c(cc1C(=O)Nc1ccc(C(O)(C(F)(F)F)C(F)(F)F)cc1)CCCCC2 [Compound 12, N-(4-(1,1,1,3,3,3-hexafluoro-2-hydroxypropan-2-yl)phenyl)-3-methoxy-6,7,8,9-tetrahydro-5H-benzo[7]annulene-2-carboxamide]
- EC50 [1]: > 40 µM
- CC50 [2]: > 40 µM

Structure (SMILES): COc1cc2c(cc1C(=O)Nc1sc(C(C)(C)C)cc1C#N)CCCCC2 [Compound 13, N-(5-(tert.-butyl)-3-cyanothiophen-2-yl)-3-methoxy-6,7,8,9-tetrahydro-5H-benzo[7]annulene-2-carboxamide]
- EC50 [1]: > 40 µM
- CC50 [2]: > 40 µM

Structure (SMILES): COc1cc2c(cc1C(=O)Nc1ccc(OC(F)(F)F)cc1)CCCCC2 [Compound 14, 3-methoxy-N-(4-(trifluoromethoxy)phenyl)-6,7,8,9-tetrahydro-5H-benzo[7]annulene-2-carboxamide]
- EC50 [1]: > 40 µM
- CC50 [2]: > 40 µM

Structure (SMILES): COc1cc2c(cc1C(=O)Nc1ccc(-c3ccccc3)cc1)CCCCC2 [Compound 15, N-([1,1′-biphenyl]-4-yl)-3-methoxy-6,7,8,9-tetrahydro-5H-benzo[7]annulene-2-carboxamide]
- EC50 [1]: > 40 µM
- CC50 [2]: > 40 µM

Structure (SMILES): COc1cc2c(cc1C(=O)Nc1ccc(-c3ccccc3)cn1)CCCCC2 [Compound 16, 3-methoxy-N-(5-phenylpyridin-2-yl)-6,7,8,9-tetrahydro-5H-benzo[7]annulene-2-carboxamide]
- EC50 [1]: > 40 µM
- CC50 [2]: > 40 µM

Structure (SMILES): CC(C)(C)c1ccc(NC(=O)c2cc3c(cc2OC(F)F)CCCCC3)cc1 [Compound 17, N-(4-(tert.-butyl)phenyl)-3-(difluoromethoxy)-6,7,8,9-tetrahydro-5H-benzo[7]annulene-2-carboxamide]
- EC50 [1]: > 40 µM
- CC50 [2]: > 40 µM

Structure (SMILES): COc1cc2c(cc1C(=O)NCc1ccc(C(C)(C)C)cc1)CCCCC2 [Compound 18, N-(4-(tert.-butyl)benzyl)-3-methoxy-6,7,8,9-tetrahydro-5H-benzo[7]annulene-2-carboxamide]
- EC50 [1]: 3.5 µM
- CC50 [2]: > 40 µM

Structure (SMILES): COc1cc2c(cc1C(=O)Nc1ccc(-c3cc[nH]n3)cc1)CCCCC2 [Compound 19, N-(4-(1H-pyrazol-3-yl)phenyl)-3-methoxy-6,7,8,9-tetrahydro-5H-benzo[7]annulene-2-carboxamide]
- EC50 [1]: 3.65 µM
- CC50 [2]: 23.2 µM

Structure (SMILES): COc1cc2c(cc1C(=O)Nc1ccc(N3CCCS3(=O)=O)cc1)CCCCC2 [Compound 20, N-(4-(1,1-dioxidoisothiazolidin-2-yl)phenyl)-3-methoxy-6,7,8,9-tetrahydro-5H-benzo[7]annulene-2-carboxamide]
- EC50 [1]: > 5 µM
- CC50 [2]: > 40 µM

Structure (SMILES): CCOc1cc2c(cc1C(=O)Nc1ccc(C(C)(C)C)cc1)CCCCC2 [Compound 21, N-(4-(tert.-butyl)phenyl)-3-ethoxy-6,7,8,9-tetrahydro-5H-benzo[7]annulene-2-carboxamide]
- EC50 [1]: 29.9 µM
- CC50 [2]: > 40 µM

Structure (SMILES): CCc1cc2c(cc1C(=O)Nc1ccc(C(C)(C)C)cc1)CCCCC2 [Compound 22, N-(4-(tert.-butyl)phenyl)-3-ethyl-6,7,8,9-tetrahydro-5H-benzo[7]annulene-2-carboxamide]
- EC50 [1]: > 40 µM
- CC50 [2]: > 40 µM

Structure (SMILES): CC(C)(C)c1ccc(NC(=O)c2cc3c(cc2O)CCCCC3)nc1 [Compound 23, N-(5-(tert.-butyl)pyridin-2-yl)-3-hydroxy-6,7,8,9-tetrahydro-5H-benzo[7]annulene-2-carboxamide]
- EC50 [1]: 3.8 µM
- CC50 [2]: > 40 µM

Structure (SMILES): COc1cc2c(cc1C(=O)Nc1ccc(C(C)(C)C#N)cc1)CCCCC2 [Compound 24, N-(4-(2-cyanopropan-2-yl)phenyl)-3-methoxy-6,7,8,9-tetrahydro-5H-benzo[7]annulene-2-carboxamide]
- EC50 [1]: 0.2 µM
- CC50 [2]: > 40 µM

Structure (SMILES): COc1cc2c(cc1C(=O)Nc1cc(-c3ccccc3)[nH]n1)CCCCC2 [Compound 25, 3-methoxy-N-(5-phenyl-1H-pyrazol-3-yl)-6,7,8,9-tetrahydro-5H-benzo[7]annulene-2-carboxamide]
- EC50 [1]: > 40 µM
- CC50 [2]: > 40 µM

Structure (SMILES): COc1cc2c(cc1C(=O)Nc1cc(C(C)(C)C)[nH]n1)CCCCC2 [Compound 26, N-(5-(tert.-butyl)-1H-pyrazol-3-yl)-3-methoxy-6,7,8,9-tetrahydro-5H-benzo[7]annulene-2-carboxamide]
- EC50 [1]: 7.03 µM
- CC50 [2]: 15.5 µM

Structure (SMILES): CCn1nc(NC(=O)c2cc3c(cc2O)CCCCC3)cc1C [Compound 27, N-(1-ethyl-5-methyl-1H-pyrazol-3-yl)-3-hydroxy-6,7,8,9-tetrahydro-5H-benzo[7]annulene-2-carboxamide]
- EC50 [1]: > 40 µM
- CC50 [2]: > 40 µM

Structure (SMILES): CC(C)(C)c1ccc(NC(=O)c2cc3c(cc2O)NCCCC3)cc1 [Compound 28, N-(4-(tert.-butyl)phenyl)-8-hydroxy-2,3,4,5-tetrahydro-1H-benzo[b]azepine-7-carboxamide]
- EC50 [1]: 1.47 µM
- CC50 [2]: > 40 µM

Structure (SMILES): COc1cc2c(cc1C(=O)Nc1ccc(C(C)(C)C)cc1)CCCCN2 [Compound 29, N-(4-(tert.-butyl)phenyl)-8-methoxy-2,3,4,5-tetrahydro-1H-benzo[b]azepine-7-carboxamide]
- EC50 [1]: 24.4 µM
- CC50 [2]: > 40 µM

Structure (SMILES): COc1cc2c(cc1C(=O)NNc1ccc(C(C)(C)C)cc1)CCCCC2 [Compound 30]
- EC50 [1]: > 40 µM
- CC50 [2]: > 40 µM

Structure (SMILES): COc1cc2c(cc1CC(=O)Nc1ccc(C(C)(C)C)cc1)CCCCC2 [Compound 31, N-(4-(tert.-butyl)phenyl)-2-(3-methoxy-6,7,8,9-tetrahydro-5H-benzo[7]annulen-2-yl)acetamide]
- EC50 [1]: 30.4 µM
- CC50 [2]: > 40 µM

Structure (SMILES): COc1cc2c(cc1CC(=O)N1CCC(C(C)(C)C)CC1)CCCCC2 [Compound 32, 1-(4-(tert.-butyl)piperidin-1-yl)-2-(3-methoxy-6,7,8,9-tetrahydro-5H-benzo[7]annulen-2-yl)ethan-1-one]
- EC50 [1]: 12.6 µM
- CC50 [2]: 17.3 µM

Structure (SMILES): COc1cc2c(cc1CC(=O)N1CCC(F)(F)CC1)CCCCC2 [Compound 33, 1-(4,4-difluoropiperidin-1-yl)-2-(3-methoxy-6,7,8,9-tetrahydro-5H-benzo[7]annulen-2-yl)ethan-1-one]
- EC50 [1]: > 40 µM
- CC50 [2]: > 40 µM

Structure (SMILES): COc1cc2c(cc1C(=O)Nc1cccnc1SC)CCCCC2 [Compound 34, 3-methoxy-N-(2-(methylthio)pyridin-3-yl)-6,7,8,9-tetrahydro-5H-benzo[7]annulene-2-carboxamide]
- EC50 [1]: > 40 µM
- CC50 [2]: > 40 µM

Structure (SMILES): CCn1ccc(NC(=O)c2cc3c(cc2OC)CCCCC3)n1 [Compound 35, N-(1-ethyl-1H-pyrazol-3-yl)-3-methoxy-6,7,8,9-tetrahydro-5H-benzo[7]annulene-2-carboxamide]
- EC50 [1]: 17.4 µM
- CC50 [2]: > 40 µM

Structure (SMILES): COc1nc2c(cc1C(=O)Nc1ccc(C(C)(C)C)cc1)CCCCC2 [Compound 36, N-(4-(tert.-butyl)phenyl)-2-methoxy-6,7,8,9-tetrahydro-5H-cyclohepta[b]pyridine-3-carboxamide]
- EC50 [1]: 1.71 µM
- CC50 [2]: > 40 µM

Structure (SMILES): COc1nc2c(cc1C(=O)Nc1ccc(C(C)(C)C)cn1)CCCCC2 [Compound 37, N-(5-(tert.-butyl)pyridin-2-yl)-2-methoxy-6,7,8,9-tetrahydro-5H-cyclohepta[b]pyridine-3-carboxamide]
- EC50 [1]: 13.6 µM
- CC50 [2]: > 40 µM
